Measurements as given in ChEMBL document CHEMBL3045842, “Antioxidant and -glucosidase inhibitory compounds from Pimpinella candolleana Wight et Arn” (Med Chem Res, 2012).
In brackets after ≈: the same amount, converted by molar mass.

Assays:
[1] = molecular target: Lysosomal alpha-glucosidase (Homo sapiens) (UniProt P10253); test: Inhibition of alpha-glucosidase (unknown origin) using para-nitrophenyl-alpha-D-glucopyranoside as substrate incubated at 50 to 300 ug/ml for 15 min prior to substrate addition measured after 15 min by spectrophotometric analysis
[2] = Antioxidant activity assessed as trolox equivalents of ferric reducing activity after 30 min by spectrophotometry; format: functional
[3] = Antioxidant activity assessed as ABTS radical scavenging activity after 10 min by spectrophotometry; format: functional
[4] = test system: Radical scavenging activity; test: Antioxidant activity assessed as as DPPH radical scavenging activity after 30 min by spectrophotometry; format: functional

SMILES | inhibition [1] | Activity [2] | IC50 [3] | IC50 [4]
CC[C@H](/C=C/[C@@H](C)[C@H]1CC[C@H]2[C@@H]3CC=C4CC(OC(C)=O)CC[C@]4(C)[C@H]3CC[C@]12C)C(C)C (stereo not given in full) | 99.1% | – | – | –
C[C@H]1O[C@H](O[C@H]2[C@H](O)[C@@H](O)[C@@H](O[C@H]3[C@H](O)[C@@H](O)C(O)O[C@@H]3CO)O[C@@H]2CO)[C@H](O)[C@@H](O)[C@@H]1N[C@H]1C=C(CO)[C@@H](O)[C@H](O)[C@H]1O (stereo not given in full) | 55.6% | – | – | –
C[C@H]1[C@H](C)CC[C@]2(C(=O)O)CC[C@]3(C)C(=CC[C@@H]4[C@@]5(C)CC[C@H](O)C(C)(C)[C@@H]5CC[C@]43C)[C@H]12 | 97.6% | – | – | –
O=c1cc(-c2ccc(O)cc2)oc2cc(O)c([C@@H]3O[C@H](CO)[C@@H](O)[C@H](O)[C@H]3O)c(O)c12 | 76.8% | – | – | –
Cc1cc(C(C)(C)C)c(O)c(C(C)(C)C)c1 [BUTYLATED HYDROXYTOLUENE] | – | 1580 µmol/g | 6.64 µg/mL (≈ 30.1 µM) | 18.71 µg/mL (≈ 84.9 µM)
O=c1cc(-c2ccc(O)c(O)c2)oc2cc(O)cc(O)c12 [LUTEOLIN] | 99.9% | – | – | 0.99 µg/mL (≈ 3.46 µM)
CCCOC(=O)c1cc(O)c(O)c(O)c1 [PROPYL GALLATE] | – | – | – | 3.96 µg/mL (≈ 18.7 µM)
